≈ marks a conversion by molar mass, not a printed value. Where two headings read alike, the source gives them in different places.
How the values were obtained:
HeLa cells = assay: Colony inhibition test against HeLa cells in vitro; assay type: cell-based; conditions: Homo sapiens
From the text: The compounds have been tested in several experimental systems in order to ascertain their cytotoxicity and antitumor activity in experimental animals.
Colony inhibition test against HeLa cells
in vitro (treatment for 24 hrs)

P388 leukemia = assay: Antitumor activity against P388 leukemia in CDF-1 mice; assay type: in vivo; conditions: for LTS (long term survivors, >60 days) / Toxic deaths / T/C %: ip on day 1; for Toxic deaths: autopsy findings; for T/C %: median survival time
Method: (§1) The primary screening in vivo was carried out in CDF-1 mice bearing P388 ascetic leukemia (10^6 cells/mouse). […] The doxorubicin analogs II, IV, VI have been tested in C3H mice bearing the Gross leukemia injected iv (2×10^6 cell/mouse). […] Compound II has been studied on P388 leukemia cells resistant to doxorubicin (P388/DX) in vitro and in vivo. Cytotoxicity tests were carried out exposing the cells to various drug concentrations for 48 hrs. At the end of exposure period cells were counted with a coulter cell counter, and the ID50 (dose which gives 50% reduction of the cell number in comparison with untreated controls) was calculated. […] Compound II has been tested also in vivo in BDF-1 mice bearing P388/DX leukemia.
Antitumor activity against P388 leukemia
^a Median survival time; % over untreated controls
^b Long term survivors (>60 days)
^c Evaluated on the basis of autopsy findings on dead mice

Gross leukemia = assay: Activity on Gross leukemia in C3H mice; assay type: in vivo; conditions: for LTS (long term survivors, >60 days) / Toxic deaths / T/C %: iv on day 1; for Toxic deaths: autopsy findings; for T/C %: median survival time; for potency versus doxorubicin in Gross leukemia: iv on day 1 after tumor inoculation
Method: as §1
Activity on Gross leukemia (IV-1)

P388/DX leukemia cells = assay: Cytotoxicity test on doxorubicin-resistant P388 leukemia cells (P388/DX) in vitro; assay type: cell-based; conditions: for activity on P388/DX leukemia cells: P388/DX cells in vitro, 48 hrs
Method: as §1
(§2) Effect on sensitive and doxorubicin-resistant
(§3) ^a Dose giving 50% reduction of cell number in comparison with
^c P388 leukemia cells resistant to doxorubicin

P388/DX leukemia = assay: Effect on doxorubicin-resistant P388 leukemia (P388/DX) in vivo; set-up: species or system BDF-1 mice; conditions: for Toxic deaths: autopsy findings; for T/C: median survival time
Method: as §1
Effect on doxorubicin-resistant P388 leukemia

P388 leukemia cells = assay: Cytotoxicity test on doxorubicin-sensitive P388 leukemia cells in vitro; assay type: cell-based; conditions: for IC50: Mus musculus
Method: as §1, §2, §3
^b P388 leukemia cells sensitive to doxorubicin

[1] = compared with doxorubicin, P388 leukemia in mice
[2] = HeLa cells, colony inhibition, treatment for 24 hrs, read-out: ID50 (the source's name)

COc1cccc2c1C(=O)c1c(O)c3c(c(O)c1C2=O)C[C@@](O)(C(C)=O)C[C@@H]3O[C@H]1C[C@H](N2CCOC(OC)C2)[C@H](O)[C@H](C)O1 (stereo partly shown) [Compound I, 3'-deamino-3'-(2"-methoxy-4"-morpholinyl)daunorubicin]
IC50 (HeLa cells; HeLa, 24 h, read-out: ID50): 2 ng/mL (≈ 3.19 nM)
LTS (long term survivors, >60 days) (P388 leukemia; 0.13 mg/Kg): 0/10
Toxic deaths (P388 leukemia; 0.13 mg/Kg): 0/10
T/C % (P388 leukemia; 0.13 mg/Kg): 136%

COc1cccc2c1C(=O)c1c(O)c3c(c(O)c1C2=O)C[C@@](O)(C(C)=O)C[C@@H]3O[C@H]1C[C@H](N2CC(C)OC(OC)C2)[C@H](O)[C@H](C)O1 (stereo partly shown) [III, 3'-deamino-3'-(2"-methoxy-6"-methyl-4"-morpholinyl)daunorubicin]
IC50 (HeLa cells; HeLa, 24 h, read-out: ID50): 1.8 ng/mL (≈ 2.81 nM)

COc1cccc2c1C(=O)c1c(O)c3c(c(O)c1C2=O)C[C@@](O)(C(=O)CO)C[C@@H]3O[C@H]1C[C@H](N2CC(C)OC(OC)C2)[C@H](O)[C@H](C)O1 (stereo partly shown) [IV, 3'-deamino-3'-(2"-methoxy-6"-methyl-4"-morpholinyl)doxorubicin]
LTS (long term survivors, >60 days) (Gross leukemia; 0.27 mg/Kg): 0/10
Toxic deaths (Gross leukemia; 0.27 mg/Kg): 0/10
T/C % (Gross leukemia; 0.27 mg/Kg): 142%
potency versus doxorubicin in Gross leukemia (Gross leukemia): more potent than doxorubicin
IC50 (HeLa cells; HeLa, 24 h, read-out: ID50): 0.32 ng/mL (≈ 0.487 nM)
LTS (long term survivors, >60 days) (P388 leukemia; 0.2 mg/Kg): 0/10
Toxic deaths (P388 leukemia; 0.2 mg/Kg): 0/10
T/C % (P388 leukemia; 0.2 mg/Kg): 173%
potency versus the parent drug (P388 leukemia; [1]): more potent than the parent drug

COc1cccc2c1C(=O)c1c(O)c3c(c(O)c1C2=O)C[C@@](O)(C(=O)CO)C[C@@H]3O[C@H]1C[C@H](N2CC(CO)OC(OC)C2)[C@H](O)[C@H](C)O1 (stereo partly shown) [VI, 3'-deamino-3'-(2"-methoxy-6"-hydroxymethyl-4"-morpholinyl)doxorubicin]
LTS (long term survivors, >60 days) (Gross leukemia; 2 mg/Kg): 0/10
Toxic deaths (Gross leukemia; 2 mg/Kg): 0/10
T/C % (Gross leukemia; 2 mg/Kg): 150%
potency versus doxorubicin in Gross leukemia (Gross leukemia): more potent than doxorubicin
IC50 (HeLa cells; HeLa, 24 h, read-out: ID50): 9 ng/mL (≈ 13.4 nM)
LTS (long term survivors, >60 days) (P388 leukemia; 1.33 mg/Kg): 0/10
Toxic deaths (P388 leukemia; 1.33 mg/Kg): 0/10
T/C % (P388 leukemia; 1.33 mg/Kg): 164%
LTS (long term survivors, >60 days) (P388 leukemia; 2.0 mg/Kg): 0/10
Toxic deaths (P388 leukemia; 2.0 mg/Kg): 0/10
T/C % (P388 leukemia; 2.0 mg/Kg): 195%
potency versus the parent drug (P388 leukemia; [1]): more potent than the parent drug

COc1cccc2c1C(=O)c1c(O)c3c(c(O)c1C2=O)C[C@@](O)(C(=O)CO)C[C@@H]3O[C@H]1C[C@H](N)[C@H](O)[C@H](C)O1 [Doxorubicin, doxorubicin]
LTS (long term survivors, >60 days) (Gross leukemia; 10 mg/Kg): 0/10
Toxic deaths (Gross leukemia; 10 mg/Kg): 0/10
T/C % (Gross leukemia; 10 mg/Kg): 183%
LTS (long term survivors, >60 days) (Gross leukemia; 13 mg/Kg): 0/10
Toxic deaths (Gross leukemia; 13 mg/Kg): 0/10
T/C % (Gross leukemia; 13 mg/Kg): 200%
IC50 (HeLa cells; [2]): 18 ng/mL (≈ 33.1 nM)
LTS (long term survivors, >60 days) (P388 leukemia; 6.6 mg/Kg): 0/10
Toxic deaths (P388 leukemia; 6.6 mg/Kg): 0/10
T/C % (P388 leukemia; 6.6 mg/Kg): 214%
LTS (long term survivors, >60 days) (P388 leukemia; 10 mg/Kg): 1/10
Toxic deaths (P388 leukemia; 10 mg/Kg): 0/10
T/C % (P388 leukemia; 10 mg/Kg): 214%
activity on P388/DX leukemia cells (P388/DX leukemia cells): inactive
IC50 (P388/DX leukemia cells; P388/DX resistant to doxorubicin, 48 hrs exposure, cell count, read-out: ID50 (the source's name)): 1500 ng/mL (≈ 2760 nM)
LTC (long term survivors, >60 days) (P388/DX leukemia; 4.4 mg/Kg): 0/10
Toxic deaths (P388/DX leukemia; 4.4 mg/Kg): 0/10
T/C (P388/DX leukemia; 4.4 mg/Kg): 110%
LTC (long term survivors, >60 days) (P388/DX leukemia; 6.6 mg/Kg): 0/10
Toxic deaths (P388/DX leukemia; 6.6 mg/Kg): 0/10
T/C (P388/DX leukemia; 6.6 mg/Kg): 100%
IC50 (P388 leukemia cells; P388 sensitive to doxorubicin, 48 hrs exposure, cell count, read-out: ID50 (the source's name)): 12 ng/mL (≈ 22.1 nM)

COc1cccc2c1C(=O)c1c(O)c3c(c(O)c1C2=O)C[C@@](O)(C(C)=O)C[C@@H]3O[C@H]1C[C@H](N2CC(CO)OC(OC)C2)[C@H](O)[C@H](C)O1 (stereo partly shown) [V, 3'-deamino-3'-(2"-methoxy-6"-hydroxymethyl-4"-morpholinyl)daunorubicin]
IC50 (HeLa cells; HeLa, 24 h, read-out: ID50): 10.5 ng/mL (≈ 16 nM)
LTS (long term survivors, >60 days) (P388 leukemia; 2.0 mg/Kg): 0/10
Toxic deaths (P388 leukemia; 2.0 mg/Kg): 0/10
T/C % (P388 leukemia; 2.0 mg/Kg): 145%
LTS (long term survivors, >60 days) (P388 leukemia; 3.0 mg/Kg): 0/10
Toxic deaths (P388 leukemia; 3.0 mg/Kg): 0/10
T/C % (P388 leukemia; 3.0 mg/Kg): 164%
activity versus daunorubicin (increase of mice life span) (P388 leukemia; same optimal dose, P388 leukemia in mice): more active than daunorubicin

COc1cccc2c1C(=O)c1c(O)c3c(c(O)c1C2=O)C[C@@](O)(C(C)=O)C[C@@H]3O[C@H]1C[C@H](N)[C@H](O)[C@H](C)O1 [Daunorubicin, daunorubicin]
IC50 (HeLa cells; [2]): 18.6 ng/mL (≈ 35.3 nM)
LTS (long term survivors, >60 days) (P388 leukemia; 2.9 mg/Kg): 0/10
Toxic deaths (P388 leukemia; 2.9 mg/Kg): 0/10
T/C % (P388 leukemia; 2.9 mg/Kg): 145%
LTS (long term survivors, >60 days) (P388 leukemia; 4.4 mg/Kg): 0/10
Toxic deaths (P388 leukemia; 4.4 mg/Kg): 1/10
T/C % (P388 leukemia; 4.4 mg/Kg): 150%

COc1cccc2c1C(=O)c1c(O)c3c(c(O)c1C2=O)C[C@@](O)(C(=O)CO)C[C@@H]3O[C@H]1C[C@H](N2CCOC(OC)C2)[C@H](O)[C@H](C)O1 (stereo partly shown) [Compound II, 3'-deamino-3'-(2"-methoxy-4"-morpholinyl)doxorubicin]
LTS (long term survivors, >60 days) (Gross leukemia; 0.16 mg/Kg): 0/10
Toxic deaths (Gross leukemia; 0.16 mg/Kg): 0/10
T/C % (Gross leukemia; 0.16 mg/Kg): 150%
potency versus doxorubicin in Gross leukemia (Gross leukemia): more potent than doxorubicin
IC50 (HeLa cells; HeLa, 24 h, read-out: ID50): 0.96 ng/mL (≈ 1.49 nM)
LTS (long term survivors, >60 days) (P388 leukemia; 0.15 mg/Kg): 2/10
Toxic deaths (P388 leukemia; 0.15 mg/Kg): 0/10
T/C % (P388 leukemia; 0.15 mg/Kg): 295%
efficacy versus the parent drug (P388 leukemia; [1]): exhibits a major efficacy
potency versus the parent drug (P388 leukemia; [1]): more potent than the parent drug
times more potent than the parent drug (P388 leukemia; [1]): 60 times
activity on P388/DX leukemia cells (P388/DX leukemia cells): very active
IC50 (P388/DX leukemia cells; P388/DX, 48 h, read-out: ID50): 3 ng/mL (≈ 4.66 nM)
LTC (long term survivors, >60 days) (P388/DX leukemia; 0.075 mg/Kg): 0/10
Toxic deaths (P388/DX leukemia; 0.075 mg/Kg): 0/10
T/C (P388/DX leukemia; 0.075 mg/Kg): 100%
LTC (long term survivors, >60 days) (P388/DX leukemia; 0.15 mg/Kg): 0/10
Toxic deaths (P388/DX leukemia; 0.15 mg/Kg): 1/10
T/C (P388/DX leukemia; 0.15 mg/Kg): 165%
activity in P388/DX leukemia in vivo (P388/DX leukemia; BDF-1 mice, 0.15 mg/Kg): very active
IC50 (P388 leukemia cells; P388, 48 h, read-out: ID50): 0.3 ng/mL (≈ 0.466 nM)
times more cytotoxic than doxorubicin (P388 leukemia cells; P388 leukemia cells): 40 times
